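How tested: cells in 96-well plates exposed to compound for 48 hours at five concentrations. GI50 marks 50% less growth. TGI is the concentration that stops growth completely.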
Legend:
Assay in all cases: inhibition of tumour cell growth, NCI panel, 48 h
[1] = tested on: COLO 205 colon
[2] = tested on: HCT-116 colon
[3] = tested on: HCT-15 colon
[4] = tested on: HOP-92 NSCLC
[5] = tested on: HT29 colon
[6] = tested on: SK-MEL-2 melanoma
[7] = tested on: SK-MEL-28 melanoma
[8] = tested on: SK-MEL-5 melanoma
[9] = tested on: 786-0 renal
[10] = tested on: PC-3 prostate

| Compound | TGI [1] [µM] | TGI [2] [µM] | TGI [3] [µM] | TGI [4] [µM] | TGI [5] [µM] | TGI [6] [µM] | TGI [7] [µM] | TGI [8] [µM] | TGI [9] [µM] | TGI [10] [µM] | GI50 [1] [µM] | GI50 [2] [µM] | GI50 [3] [µM] | GI50 [4] [µM] | GI50 [5] [µM] | GI50 [10] [µM] | GI50 [6] [µM] | GI50 [7] [µM] | GI50 [8] [µM] |
| --- | --- | --- | --- | --- | --- | --- | --- | --- | --- | --- | --- | --- | --- | --- | --- | --- | --- | --- | --- |
| COc1nc2[nH]ccc2c(=O)n1C | > 100 | > 100 | > 100 | > 100 | > 100 | > 100 | > 100 | > 100 |  |  |  |  |  |  |  |  |  |  |  |
| CS(=O)(=O)O.[Ag] | 4.84 | 20 | 36.5 |  | 39.3 | 30.2 | 35.2 | 18.3 | 29.9 | 27.2 |  |  |  |  |  |  |  |  |  |
| CN(C)CCn1c(=O)c2ccc3c4c(nn3CCN(C)C)c3ccccc3n(c1=O)c24 | 0.985 | 2.22 | 1.39 |  | 2.23 | 1.17 | 6.46 | 1.42 | 0.961 | 3.21 |  |  |  |  |  |  |  |  |  |
| Clc1ncnc2c1ncn2CCCCCCCCCCCCn1cnc2c(Cl)ncnc21 | 29.1 | 24.8 | 25.8 | 19.4 | 21.5 | 26.4 | 6.82 | 17.5 | 71.8 |  |  |  |  |  |  |  |  |  |  |
| COC(=O)CCN(CCC(=O)OC)C1CC1 | > 100 | > 100 | > 100 | > 100 | > 100 |  | > 100 | > 100 | > 100 |  |  |  |  |  |  |  |  |  |  |
| NC(=O)NCCCC(NC(=O)OCCCCCn1ccc(=O)[nH]c1=O)C(=O)O (stereo not given) | > 100 | > 100 | > 100 | > 100 | > 100 | > 100 | > 100 |  | > 100 | > 100 |  |  |  |  |  |  |  |  |  |
| NC(=O)CS(=O)CC(N)C(=O)O (stereo not given) |  | > 100 | > 100 | > 100 | > 100 | > 100 | > 100 | > 100 | > 100 | > 100 |  |  |  |  |  |  |  |  |  |
| COc1cc(-c2nc3nc(N4CCN(C)CC4)ccc3[nH]2)c(OC)c2[nH]c(COC(C)=O)nc12 | > 100 | 58.6 | > 100 | > 100 | 61.8 | 47.4 | > 100 | 35.6 | 72.4 |  |  |  |  |  |  |  |  |  |  |
| O=C(O)C1SCCS1 | > 100 | > 100 | > 100 | > 100 | > 100 |  | > 100 | > 100 | > 100 | > 100 |  |  |  |  |  |  |  |  |  |
| COC(=O)c1cccc(C(=O)OC)c1 | > 100 | > 100 | > 100 | > 100 | > 100 | > 100 | > 100 |  |  |  |  |  |  |  |  |  |  |  |  |
| CCOC12SC(=Nc3ccc(C)cc3)NN1C(=S)N(C)N=C2C (stereo not given) | > 100 | > 100 | > 100 | > 100 | > 100 |  | > 100 | > 100 | > 100 |  |  |  |  |  |  |  |  |  |  |
| CC(C)C1=CC23CCC4C(C)(C(=O)O)CCCC4(C)C2CC1C(C(=O)O)C3C(=O)O (stereo not given) |  | > 100 | > 100 | > 100 | > 100 | > 100 | > 100 | > 100 | > 100 | > 100 |  |  |  |  |  |  |  |  |  |
| c1ccc(C2=C(c3ccccc3)P(c3ccccc3)C2)cc1 (stereo not given) | > 100 | > 100 | > 100 | > 100 | > 100 | > 100 | > 100 |  | > 100 | > 100 |  |  |  |  |  |  |  |  |  |
| CC(=O)Nc1ccc(-c2nnc(SCC(=O)Nc3ccccc3C)o2)cc1 | > 100 | 29.4 | > 100 | > 100 | > 100 | > 100 | > 100 | > 100 | > 100 |  |  |  |  |  |  |  |  |  |  |
| COc1cc(CNc2nc3cc(C(F)(F)F)ccc3nc2C)cc(OC)c1OC | 30.2 | 72.2 | 32.8 |  | 33.6 |  | 65 | 46.9 |  |  |  |  |  |  |  |  |  |  |  |
| O=C1C[C@H](c2ccccc2)C2(C(=O)c3ccccc3C2=O)[C@H](c2ccccc2)C1 | > 100 | > 100 | > 100 | > 100 | > 100 | > 100 | > 100 | > 100 |  | > 100 |  |  |  |  |  |  |  |  |  |
| c1ccc(Nc2nnc(-c3nsc4ccccc34)o2)cc1 | > 100 | > 100 | > 100 | > 100 | > 100 | > 100 | > 100 | > 100 |  |  |  |  |  |  |  |  |  |  |  |

| Compound | TGI [1] [µM] | TGI [2] [µM] | TGI [3] [µM] | TGI [4] [µM] | TGI [5] [µM] | TGI [6] [µM] | TGI [7] [µM] | TGI [8] [µM] | TGI [9] [µM] | TGI [10] [µM] | GI50 [1] [µM] | GI50 [2] [µM] | GI50 [3] [µM] | GI50 [4] [µM] | GI50 [5] [µM] | GI50 [10] [µM] | GI50 [6] [µM] | GI50 [7] [µM] | GI50 [8] [µM] |
| --- | --- | --- | --- | --- | --- | --- | --- | --- | --- | --- | --- | --- | --- | --- | --- | --- | --- | --- | --- |
| Cc1n(CC(=O)c2ccccc2)nc2sc(N)n[n+]12 | > 100 | > 100 | > 100 |  | > 100 | > 100 | > 100 | > 100 | > 100 | > 100 |  |  |  |  |  |  |  |  |  |
| COc1ccc(C2c3cc4c(cc3OC(N3CCCCC3)C2C)OCO4)cc1 (stereo not given) | > 100 | > 100 | > 100 |  | > 100 | > 100 | > 100 | > 100 | > 100 | > 100 |  |  |  |  |  |  |  |  |  |
| Nc1nc2cc(CNc3ccc(C(=O)NC(CCC(=O)O)C(=O)O)cc3)ccc2nc1-c1ccccc1 (stereo not given) | > 10 | > 10 | > 10 |  | > 10 | > 10 | > 10 | > 10 | > 10 | > 10 |  |  |  |  |  |  |  |  |  |
| COc1ccc(/C=N/n2c(Cc3ccc(Cl)cc3)n[nH]c2=O)c(OC)c1 | > 100 | > 100 | > 100 | 65.9 | 75.1 | > 100 | > 100 |  | 52.8 | > 100 |  |  |  |  |  |  |  |  |  |
| CC(=O)OCC1OC(c2nnc(C)o2)=CC(OC(C)=O)C1OC(C)=O (stereo not given) | > 100 | > 100 |  |  | > 100 |  | > 100 | > 100 | > 100 | > 100 |  |  |  |  |  |  |  |  |  |
| CN1CC2CC(C1)c1cccc(=O)n1C2 (stereo not given) | > 100 | > 100 | > 100 | > 100 | > 100 | > 100 |  | > 100 | > 100 | > 100 |  |  |  |  |  |  |  |  |  |
| CN1CCCCC(C(O)(c2ccccc2)c2ccccc2)C1=O (stereo not given) | > 100 | 56.9 | 32.1 | > 100 | > 100 | > 100 | > 100 | > 100 | > 100 |  |  |  |  |  |  |  |  |  |  |
| Cc1nnc2sc(N/N=C/c3ccccc3)nn12 | > 100 | > 100 | > 100 |  | > 100 | > 100 | > 100 | > 100 | > 100 | > 100 |  |  |  |  |  |  |  |  |  |
| CC1(C)[C@@H]2C[C@H]1C(Cc1cccc(C[C@H]3c4cc(-c5ccccn5)ncc4[C@H]4C[C@@H]3C4(C)C)c1)c1cc(-c3ccccn3)ncc12 (stereo not given in full) | > 58.6 | > 100 | > 53 |  | > 100 | > 100 | > 100 | > 35.8 |  | > 47.2 |  |  |  |  |  |  |  |  |  |
| CCS(=O)(=O)c1c2cc(OC)ccc2nc2ccc(OC)cc12 | > 100 | > 100 | > 100 | > 100 | > 100 | > 100 | > 100 |  | > 100 | > 100 |  |  |  |  |  |  |  |  |  |
| CC[C@@H]1CC[C@@H]2[C@H](CC[C@]3(C)[C@@H](OS(=O)(=O)c4ccc(C)cc4)CC[C@@H]23)[C@H]1CO | > 100 | > 100 | > 100 | > 100 | > 100 |  | > 100 | > 100 | > 100 | > 100 |  |  |  |  |  |  |  |  |  |
| COC1/C=C/C(C)C(C(C)C(OC)C(C)CCC(=O)C(C)C(C/C=C/N(C)C=O)OC)OC(=O)/C=C/C=C(\C)CC(OC)C(OC)C2=CC(=O)O[C@@H](C(C)C(OC)CC(OC)/C=C/C(C)C(O)C1)[C@H]2O (stereo not given in full) |  | 0.207 | 0.329 | 0.115 | 2.15 | 0.388 | 0.878 | 0.206 | 0.434 | 0.35 |  |  |  |  |  |  |  |  |  |
| N#Cc1c(N2CCN(c3ccc([N+](=O)[O-])cc3)CC2)[n+](=O)c2ccc(Cl)cc2n1[O-] |  |  | 2.17 |  | 7.31 | 8.54 | > 39.2 |  | 4.58 | > 36.2 |  |  |  |  |  |  |  |  |  |
| COc1ccc2c(c1)-c1nn(CCN(C)C)c3ccc(C(=O)NCCCN(C)CCCNC(=O)c4ccc5c6c(nn5CCN(C)C)-c5cc(OC)ccc5Nc46)c(c13)N2 | 0.224 | 1.74 | 10.9 |  | 1.74 | 0.25 | 0.48 | 0.313 | 1.9 | 1.09 |  |  |  |  |  |  |  |  |  |
| COC(=O)n1c(CBr)c(Br)c2ccccc21 | > 100 | > 100 | > 100 | 68 | > 100 | 47 | > 100 | > 100 | > 100 |  |  |  |  |  |  |  |  |  |  |
| O=C(Nc1cccc(-n2ccc3c(NC(=O)c4ccccc4)nccc32)c1)c1cc(N2CCOCC2)cc(C(F)(F)F)c1 | 0.472 | > 29.8 |  | > 26.2 | 0.446 | 3.82 | > 100 | 0.249 |  | > 100 | 0.157 | 0.0347 | 0.0395 | 0.3 | 0.0312 | 0.152 | 0.167 | 0.085 | 0.0671 |
